Test results as given in ChEMBL document CHEMBL1129859, “Synthesis and antibacterial activity of (1R, 5R, 6R)-2-tert-butyl-6-(1-hydroxyethyl)penem-3-carboxylic acid” (Bioorg Med Chem Lett, 1997).
≈ marks a conversion by molar mass, not a printed value.

What was measured:
Klebsiella [1] = assay: Tested in vitro for the antibacterial activity against Klebsiella sp. strain X 26; assay type: functional
Salmonella [2] = assay: Tested in vitro for the antibacterial activity against Salmonella sp. strain X 514; assay type: functional
Escherichia coli [3] = assay: Tested in vitro for the antibacterial activity against Escherichia coli strain N 10; assay type: functional
Enterobacter cloacae [4] = assay: Tested in vitro for the antibacterial activity against Enterobacter cloacae strain 265 A; assay type: functional
Staphylococcus aureus [5] = assay: Tested in vitro for the antibacterial activity against Staphylococcus aureus strain X 1.1; assay type: functional
Enterococcus [6] = assay: Tested in vitro for the antibacterial activity against Enterococcus sp. strain X 66; assay type: functional
Morganella morganii = assay: Tested in vitro for the antibacterial activity against Morganella morganii strain PR 15; assay type: functional
Escherichia coli [7] = assay: Tested in vitro for the beta lactamase inhibition of Escherichia coli TEM; assay type: functional
Salmonella [8] = assay: Tested in vitro for the antibacterial activity against Salmonella sp. strain 1335; assay type: functional
Shigella sonnei = assay: Tested in vitro for the antibacterial activity against Shigella sonnei strain N 9; assay type: functional
Staphylococcus aureus [9] = assay: Tested in vitro for the antibacterial activity against Staphylococcus aureus strain V 41; assay type: functional
Staphylococcus aureus [10] = assay: Tested in vitro for the antibacterial activity against Staphylococcus aureus strain X 400; assay type: functional
Enterobacter cloacae [11] = assay: Tested in vitro for the beta lactamase inhibition of Enterobacter cloacae; assay type: functional, organism-based
[12] = Half-life was determined; assay type: ADME; details: human
Serratia marcescens [13] = assay: Tested in vitro for the antibacterial activity against Serratia marcescens strain X 99; assay type: functional
Providencia rettgeri = assay: Tested in vitro for the antibacterial activity against Providencia rettgeri strain C 24; assay type: functional
Escherichia coli [14] = assay: Tested in vitro for the antibacterial activity against Escherichia coli strain TEM; assay type: functional
Providencia stuartii [15] = assay: Tested in vitro for the antibacterial activity against Providencia stuartii strain PR 33; assay type: functional
Citrobacter freundii [16] = assay: Tested in vitro for the antibacterial activity against Citrobacter freundii strain CF 17; assay type: functional
Escherichia coli [17] = assay: Tested in vitro for the antibacterial activity against Escherichia coli strain EC 14; assay type: functional
Klebsiella aerogenes [18] = assay: Tested in vitro for the antibacterial activity against Enterobacter aerogenes strain EB 17; assay type: functional
Acinetobacter = assay: Tested in vitro for the antibacterial activity against Acinetobacter sp. strain AC 12; assay type: functional
Enterococcus [19] = assay: Tested in vitro for the antibacterial activity against Enterococcus sp. strain 2041; assay type: functional
Serratia marcescens [20] = assay: Tested in vitro for the antibacterial activity against Serratia marcescens strain SE 3; assay type: functional
Streptococcus pyogenes = assay: Tested in vitro for the antibacterial activity against Streptococcus pyogenes strain C 203; assay type: functional
Staphylococcus aureus [21] = assay: Tested in vitro for the antibacterial activity against Staphylococcus aureus strain S 13 E; assay type: functional
Klebsiella [22] = assay: Tested in vitro for the antibacterial activity against Klebsiella sp. strain KAE; assay type: functional
[23] = test system: Staphylococcus epidermidis; assay: Tested in vitro for the antibacterial activity against Staphylococcus epidermidis strain 270; assay type: functional
Enterobacter cloacae [24] = assay: Tested in vitro for the antibacterial activity against Enterobacter cloacae strain EB 5; assay type: functional
Klebsiella aerogenes [25] = assay: Tested in vitro for the antibacterial activity against Enterobacter aerogenes strain C 32; assay type: functional
[26] = test system: Staphylococcus epidermidis; assay: Tested in vitro for the antibacterial activity against Staphylococcus epidermidis strain 222; assay type: functional
Haemophilus influenzae [27] = assay: Tested in vitro for the antibacterial activity against Haemophilus influenzae (b-lac+) strain 76; assay type: functional
Klebsiella [28] = assay: Tested in vitro for the antibacterial activity against Klebsiella sp. strain X 68; assay type: functional
Haemophilus influenzae [29] = assay: Tested in vitro for the antibacterial activity against Haemophilus influenzae (b-lac-) strain CL; assay type: functional
Streptococcus pneumoniae = assay: Tested in vitro for the antibacterial activity against Streptococcus pneumoniae strain Park I; assay type: functional
Providencia stuartii [30] = assay: […] Tested in vitro for the antibacterial activity against Providencia stuartii strain PR 33; assay type: functional
Citrobacter freundii [31] = assay: Tested in vitro for the antibacterial activity against Citrobacter freundii strain CF17; assay type: functional

Structure (SMILES)	MIC (Klebsiella [1]) [µg/mL]	MIC (Salmonella [2]) [µg/mL]	MIC (Escherichia coli [3]) [µg/mL]	MIC (Enterobacter cloacae [4]) [µg/mL]	MIC (Staphylococcus aureus [5]) [µg/mL]	MIC (Enterococcus [6]) [µg/mL]	MIC (Morganella morganii) [µg/mL]	IC50 (Escherichia coli [7]) [µM]	MIC (Salmonella [8]) [µg/mL]	MIC (Shigella sonnei) [µg/mL]	MIC (Staphylococcus aureus [9]) [µg/mL]	MIC (Staphylococcus aureus [10]) [µg/mL]	IC50 (Enterobacter cloacae [11]) [µM]	MIC (Serratia marcescens [13]) [µg/mL]	MIC (Providencia rettgeri) [µg/mL]	MIC (Escherichia coli [14]) [µg/mL]	MIC (Escherichia coli [17]) [µg/mL]	MIC (Klebsiella aerogenes [18]) [µg/mL]	MIC (Acinetobacter) [µg/mL]	MIC (Enterococcus [19]) [µg/mL]	also measured
C[C@@H](O)[C@H]1C(=O)N2C(C(=O)[O-])=C(C(C)(C)C)S[C@H]12.[K+]	8	32	64	128	0.5	16	32	0.05	128	64	1	4	0.3	128	8	128	128	128	16	32	half-life [12]: 16 days; MIC (Providencia stuartii [15]): 32 µg/mL; MIC (Citrobacter freundii [16]): 128 µg/mL; MIC (Serratia marcescens [20]): 128 µg/mL; MIC (Streptococcus pyogenes): 0.12 µg/mL; MIC (Staphylococcus aureus [21]): 4 µg/mL; MIC (Klebsiella [22]): 64 µg/mL; MIC [23]: 0.5 µg/mL; MIC (Enterobacter cloacae [24]): 128 µg/mL; MIC (Klebsiella aerogenes [25]): 128 µg/mL; MIC [26]: 2 µg/mL; MIC (Haemophilus influenzae [27]): 8 µg/mL; MIC (Klebsiella [28]): 64 µg/mL; MIC (Haemophilus influenzae [29]): 8 µg/mL; MIC (Streptococcus pneumoniae): 0.12 µg/mL
CC(C)(O/N=C(\C(=O)N[C@@H]1C(=O)N2C(C(=O)[O-])=C(C[n+]3ccccc3)CS[C@H]12)c1csc(N)n1)C(=O)O [CEFTAZIDIME]	0.06 (≈ 0.11 µM)	0.06 (≈ 0.11 µM)	0.06 (≈ 0.11 µM)	32 (≈ 58.5 µM)	8 (≈ 14.6 µM)	128 (≈ 234 µM)	0.25 (≈ 0.457 µM)		0.25 (≈ 0.457 µM)	0.03 (≈ 0.0549 µM)	8 (≈ 14.6 µM)	64 (≈ 117 µM)		0.12 (≈ 0.22 µM)	0.03 (≈ 0.0549 µM)	0.03 (≈ 0.0549 µM)	0.03 (≈ 0.0549 µM)	0.12 (≈ 0.22 µM)	1 (≈ 1.83 µM)	16 (≈ 29.3 µM)	MIC (Serratia marcescens [20]): 0.06 µg/mL (≈ 0.11 µM); MIC (Streptococcus pyogenes): 0.06 µg/mL (≈ 0.11 µM); MIC (Staphylococcus aureus [21]): 64 µg/mL (≈ 117 µM); MIC (Klebsiella [22]): 0.5 µg/mL (≈ 0.915 µM); MIC (Providencia stuartii [30]): 0.06 µg/mL (≈ 0.11 µM); MIC [23]: 16 µg/mL (≈ 29.3 µM); MIC (Enterobacter cloacae [24]): 0.12 µg/mL (≈ 0.22 µM); MIC (Citrobacter freundii [31]): 0.5 µg/mL (≈ 0.915 µM); MIC (Klebsiella aerogenes [25]): 2 µg/mL (≈ 3.66 µM); MIC [26]: 16 µg/mL (≈ 29.3 µM); MIC (Haemophilus influenzae [27]): 0.03 µg/mL (≈ 0.0549 µM); MIC (Klebsiella [28]): 0.12 µg/mL (≈ 0.22 µM); MIC (Haemophilus influenzae [29]): 0.06 µg/mL (≈ 0.11 µM); MIC (Streptococcus pneumoniae): 0.03 µg/mL (≈ 0.0549 µM)
C[C@@H](O)[C@H]1C(=O)N2C(C(=O)[O-])=C(C(C)(C)C)O[C@H]12.[K+]	1	1	4	32	0.25	2	8	3	4	4	1	2	0.002	16	4	4	4	32	8	16	MIC (Providencia stuartii [15]): 4 µg/mL; MIC (Citrobacter freundii [16]): 16 µg/mL; MIC (Serratia marcescens [20]): 64 µg/mL; MIC (Streptococcus pyogenes): 0.06 µg/mL; MIC (Staphylococcus aureus [21]): 1 µg/mL; MIC (Klebsiella [22]): 4 µg/mL; MIC [23]: 4 µg/mL; MIC (Enterobacter cloacae [24]): 32 µg/mL; MIC (Klebsiella aerogenes [25]): 8 µg/mL; MIC [26]: 0.25 µg/mL; MIC (Haemophilus influenzae [27]): 0.5 µg/mL; MIC (Klebsiella [28]): 2 µg/mL; MIC (Haemophilus influenzae [29]): 0.5 µg/mL; MIC (Streptococcus pneumoniae): 0.03 µg/mL
O=C(O)[C@H]1/C(=C/CO)O[C@@H]2CC(=O)N21 [CLAVULANIC ACID]								0.04					100								
